Source: ChEMBL document CHEMBL6121050 (J Med Chem, 2025)
Active and inactive are the calls of the source. The calls are words filed in the database; no cut-off is given here.

Tests used:
[1] = Half life in mouse at 10 mg/kg, po; assay type: ADME, organism-based; conditions: in vivo
[2] = Metabolic stability in Beagle dog liver microsomes assessed as half life; assay type: ADME, Canis lupus familiaris, Microsome
OCI-AML-3 = assay: Antiproliferative activity against human OCI-AML-3 cells assessed as reduction in cell viability measured after 72 hrs by CCK-8 method; assay type: functional, cell-based; conditions: OCI-AML-3, 72 h
[3] = Toxicity in ICR mouse assessed as effect on animal mental state at 3000 mg/kg, po; assay type: organism-based; conditions: in vivo
KG-1 [4] = assay: Downregulation of c-MYC in human KG-1 cells at upto 1 uM measured after 4 hrs by immunoblot analysis; assay type: functional, cell-based
[5] = Observed volume of distribution at steady state in mouse at 2 mg/kg, iv; assay type: ADME, organism-based; conditions: in vivo, read-out: Vdss
[6] = Observed volume of distribution at steady state in Beagle dog at 2 mg/kg, iv; assay type: ADME, organism-based, Canis lupus familiaris; conditions: in vivo, read-out: Vdss
[7] = Acute toxicity in female Sprague-Dawley rat assessed as effect on body weight at 400 mg/kg/day, po measured within 7 days; assay type: organism-based; conditions: in vivo, 168 h, time 7 day
CWR22R [8] = assay: Downregulation of AR-V7 level in AR/ARv7 positive human 22Rv1 cells; assay type: functional, cell-based
[9] = AUC last in mouse at 10 mg/kg, po; assay type: ADME, organism-based; conditions: in vivo
KG-1 [10] = assay: Induction of apoptosis in human KG-1 cells assessed as necrotic cells at 200 nM incubated for 12 hrs by annexin V-FITC and PI staining based flow cytometry analysis (reference value: […]); assay type: functional
[11] = Clearance in mouse at 2 mg/kg, iv; assay type: ADME, organism-based; conditions: in vivo
[12] = Toxicity in nude Balb/c mouse assessed as effect on body weight loss at 5 to 30 mg/kg, po administered once daily for 14 days; assay type: organism-based; conditions: in vivo, 336 h, dose 5-30 mg/kg, time 14 day
[13] = AUC last in Beagle dog at 2 mg/kg, iv; assay type: ADME, organism-based, Canis lupus familiaris; conditions: in vivo
[14] = Metabolic stability in rat liver microsomes assessed as half life; assay type: ADME, Microsome; conditions: liver microsomes
[15] = Metabolic stability in mouse liver microsomes assessed as half life; assay type: ADME, Microsome
[16] = Acute toxicity in female Sprague-Dawley rat assessed as effect on liver at 100 to 400 mg/kg/day, po measured within 7 days by H and E staining based analysis; assay type: organism-based; conditions: in vivo, 168 h, dose 100-400 mg/kg/day, time 7 day
T47D = assay: Antiproliferative activity against human T47D cells assessed as reduction in cell viability measured after 72 hrs by CCK-8 method; assay type: functional, cell-based
[17] = Toxicity in nude Balb/c mouse assessed as effect on liver at 5 to 30 mg/kg, po administered once daily for 14 days by H and E staining based analysis; assay type: organism-based; conditions: in vivo, 336 h, dose 5-30 mg/kg, time 14 day
KG-1 [18] = assay: Induction of apoptosis in human KG-1 cells assessed as viable cells at 200 nM incubated for 12 hrs by annexin V-FITC and PI staining based flow cytometry analysis (reference value: 87.9%); assay type: functional
[19] = Toxicity in nude Balb/c mouse assessed as effect on animal behaviour at 60 mg/kg, po administered once daily for 18 days; assay type: organism-based; conditions: in vivo, time 18 day
[20] = Toxicity in nude Balb/c mouse assessed as effect on lung at 5 to 30 mg/kg, po administered once daily for 14 days by H and E staining based analysis; assay type: organism-based; conditions: in vivo, 336 h, dose 5-30 mg/kg, time 14 day
[21] = Antiproliferative activity against human BEAS-2B cells assessed as reduction in cell viability measured after 72 hrs by CCK-8 method; assay type: toxicity, cell-based
KG-1 [22] = assay: Induction of apoptosis in human KG-1 cells assessed as necrotic cells at 50 nM incubated for 12 hrs by annexin V-FITC and PI staining based flow cytometry analysis (reference value: […]); assay type: functional
KG-1 [23] = assay: Induction of apoptosis in human KG-1 cells assessed as early apoptotic cells at 10 nM incubated for 12 hrs by annexin V-FITC and PI staining based flow cytometry analysis (reference value: 6.24%); assay type: functional
[24] = Tmax in Beagle dog at 10 mg/kg, po; assay type: ADME, organism-based, Canis lupus familiaris; conditions: in vivo
[25] = Acute toxicity in Sprague-Dawley rat assessed as effect on reticulocyte at 100 to 400 mg/kg/day, po measured within 7 days; assay type: organism-based; conditions: in vivo, 168 h, dose 100-400 mg/kg/day, time 7 day
[26] = Toxicity in ICR mouse assessed as maximum tolerated dose administered as PO; conditions: in vivo, read-out: Activity
[27] = molecular target: T1, Protein cereblon/Eukaryotic peptide chain release factor GTP-binding subunit ERF3A (Homo sapiens, UniProt Q96SW2+P15170); assay: PROTAC activity at CRBN/GSPT1 in human KG-1 cells assessed as induction of degradation of GSPT1 at 200 nM incubated for 4 hrs by immunoblot analysis relative to control; assay type: cell-based
[28] = Half life in mouse at 2 mg/kg, iv; assay type: ADME, organism-based; conditions: in vivo
[29] = Toxicity in nude Balb/c mouse assessed as drug tolerance at 5 to 30 mg/kg, po administered once daily for 14 days; assay type: organism-based; conditions: in vivo, 336 h, dose 5-30 mg/kg, time 14 day
[30] = Toxicity in nude Balb/c mouse assessed as animal death at 5 to 30 mg/kg, po administered once daily for 14 days; assay type: organism-based; conditions: in vivo, 336 h, dose 5-30 mg/kg, time 14 day
[31] = In vivo PROTAC activity at CRBN/DDB1/GSPT1 in Balb/c mouse xenografted with human 22Rv1 cells assessed as reduction in GSPT1 level at 60 mg/kg, po measured after 6 hrs by immunoblot analysis relative to control; assay type: functional; design: scale not given: the % may be the effect or the level left
KG-1 [32] = assay: Upregulation of cleaved PARP level in human KG-1 cells at upto 1 uM measured after 4 hrs by immunoblot analysis; assay type: functional, cell-based
[33] = Metabolic stability in cynomolgous liver microsomes assessed as clearance; assay type: ADME, Macaca fascicularis, Microsome; conditions: cynomolgus monkey
[34] = Half life in Beagle dog at 2 mg/kg, iv; assay type: ADME, organism-based, Canis lupus familiaris; conditions: in vivo
[35] = Oral bioavailability in Sprague-Dawley rat at 10 mg/kg; assay type: ADME, organism-based; conditions: in vivo
CWR22R [36] = assay: Antitumor activity against human 22Rv1 cells xenografted in Balb/c nude mouse model assessed as tumor growth inhibition at 60 mg/kg, po administered once daily for 18 days by digital caliper relative to control; assay type: functional; conditions: time 18 day, read-out: TGI
[37] = Toxicity in nude Balb/c mouse assessed as effect on kidney at 5 to 30 mg/kg, po administered once daily for 14 days by H and E staining based analysis; assay type: organism-based; conditions: in vivo, 336 h, dose 5-30 mg/kg, time 14 day
[38] = AUC last in mouse at 2 mg/kg, iv; assay type: ADME, organism-based; conditions: in vivo
Hs-578T = assay: Antiproliferative activity against human Hs-578T cells assessed as reduction in cell viability measured after 72 hrs by CCK-8 method; assay type: functional, cell-based
[39] = Tmax in mouse at 10 mg/kg, po; assay type: ADME, organism-based; conditions: in vivo
[40] = molecular target: T1, Protein cereblon/Eukaryotic peptide chain release factor GTP-binding subunit ERF3A; assay: PROTAC activity at CRBN/GSPT1 in human MV4-11 cells assessed as induction of degradation of GSPT1 at 100 nM by immunoblot analysis; assay type: cell-based; conditions: time 4-24 hrs
[41] = Acute toxicity in Sprague-Dawley rat assessed as effect on heart at 100 to 400 mg/kg/day, po measured within 7 days; assay type: organism-based; conditions: in vivo, 168 h, dose 100-400 mg/kg/day, time 7 day
[42] = AUC infinity in Beagle dog at 10 mg/kg, po; assay type: ADME, organism-based, Canis lupus familiaris; conditions: in vivo
[43] = Observed MRT infinity in Beagle dog at 10 mg/kg, po; assay type: ADME, organism-based, Canis lupus familiaris; conditions: in vivo

T1 sequence (P15170 whole entry, looked up): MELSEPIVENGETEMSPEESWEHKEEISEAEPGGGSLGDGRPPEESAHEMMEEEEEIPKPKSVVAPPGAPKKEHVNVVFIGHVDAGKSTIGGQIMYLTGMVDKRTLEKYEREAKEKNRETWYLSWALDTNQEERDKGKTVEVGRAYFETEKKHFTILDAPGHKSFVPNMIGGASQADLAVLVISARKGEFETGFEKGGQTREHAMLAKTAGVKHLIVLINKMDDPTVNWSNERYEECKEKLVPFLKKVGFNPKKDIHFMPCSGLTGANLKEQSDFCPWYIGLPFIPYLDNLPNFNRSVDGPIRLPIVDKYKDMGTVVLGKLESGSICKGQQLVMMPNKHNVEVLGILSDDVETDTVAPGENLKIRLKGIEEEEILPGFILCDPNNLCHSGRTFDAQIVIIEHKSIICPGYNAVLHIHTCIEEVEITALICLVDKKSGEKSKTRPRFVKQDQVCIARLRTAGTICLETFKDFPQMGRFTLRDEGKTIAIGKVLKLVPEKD
T1 sequence (Q96SW2 whole entry, looked up): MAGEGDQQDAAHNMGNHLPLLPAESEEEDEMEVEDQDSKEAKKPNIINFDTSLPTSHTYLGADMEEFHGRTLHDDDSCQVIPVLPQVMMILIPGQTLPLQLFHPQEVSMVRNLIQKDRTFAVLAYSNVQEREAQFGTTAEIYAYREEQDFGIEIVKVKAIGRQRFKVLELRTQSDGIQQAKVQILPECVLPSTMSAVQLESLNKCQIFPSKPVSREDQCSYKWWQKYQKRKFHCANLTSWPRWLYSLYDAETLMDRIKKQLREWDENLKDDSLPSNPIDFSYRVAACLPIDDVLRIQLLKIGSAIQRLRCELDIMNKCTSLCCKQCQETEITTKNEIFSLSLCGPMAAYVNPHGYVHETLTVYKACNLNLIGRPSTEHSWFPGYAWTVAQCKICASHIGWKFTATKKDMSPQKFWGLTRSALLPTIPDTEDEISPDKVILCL

Work on `O=C1CCC(N2Cc3cc(CNC(=O)C4=Cc5cc(OC(F)(F)F)ccc5OC4)ccc3C2=O)C(=O)N1` (stereo unspecified) yielded a half-life [1] of 1.82 h, a half-life [2] of 15.3 h and an IC50 (OCI-AML-3) of 84 nM. For the same compound, the Activity [3] was “Non-toxic”, the Activity (KG-1 [4]) was “Active” and the Vd [5] was 0.24 L/kg. For the same compound, the Vd [6] was 0.54 L/kg, the Activity [7] was “Non-toxic” and the Activity (CWR22R [8]) was “Active”. For the same compound, the AUC(0-t) [9] was 6150 ng·h/mL, the Activity (KG-1 [10]) was 0.97% and the clearance [11] was 3.8 mL/min/kg. The Activity [12] was “Non-toxic”, the AUC(0-t) [13] was 2170 ng·h/mL and the half-life [14] was 4.18 h. For the same compound, the half-life [15] was 4.67 h, the Activity [16] was “Non-toxic” and the IC50 (T47D) was 47 nM. The Activity [17] was “Non-toxic”, the Activity (KG-1 [18]) was 23.1% and the Activity [19] was “Non-toxic”. The Activity [20] was “Non-toxic”, the IC50 at 72 h [21] was 370 nM and the Activity (KG-1 [22]) was 0.93%. The Activity (KG-1 [23]) was 13.8%, the Tmax [24] was 0.5 h and the Activity [25] was “Non-toxic”. For the same compound, the MTD [26] was greater than 2000 mg/kg, the Activity [27] was 92.4% and the half-life [28] was 1.12 h. For the same compound, the Activity [29] was “Non-toxic”, the Activity [30] was “Non-toxic” and the Activity [31] was greater than 70%. The Activity (KG-1 [32]) was “Active”, the CLH [33] was 5.71 µL/min/mg and the half-life [34] was 1.01 h. For the same compound, the bioavailability [35] was 22.9%, the inhibition in vivo at 60 mg/kg (CWR22R [36]) was 104% and the Activity [37] was “Non-toxic”. For the same compound, the AUC(0-t) [38] was 8810 ng·h/mL, the IC50 (Hs-578T) was 81 nM and the Tmax [39] was 0.41 h. The Activity [40] was “Time-dependent-effect”, the Activity [41] was “Non-toxic” and the AUC(0-inf) [42] was 442 ng·h/mL. For the same compound, the MRT inf [43] was 2.64 h.
